Article PMC11329504, “Identification of novel small molecule-based strategies of COL7A1 upregulation and readthrough activity for the treatment of recessive dystrophic epidermolysis bullosa” (Scientific Reports, 2024)

Tests used:
[1] = test system: RDEB_L1 cells; assay: RNAseq (HTPathwaySeq) transcriptomic profiling, GSEA; format: cell-based, human; details: 24 h, 20 ng/mL TGFβ2, compound 7 and 8 at the highest concentrations tested of 100 and 300 µM
Experimental: The […]®) analysis was conducted at […], Belgium) using samples provided by Almirall. A total of 376 cell lysate samples representing 4 biological replicates of 94 samples were provided to […] in four 96-well plates. On each 96-well plate, two empty wells were allocated to include […] reference samples. Samples from the same biological group were distributed over the different plates to not confound inter-plate variability with biological signal. […] The compounds were evaluated in RDEB_L1 cells in the presence of 20 ng/mL TGFβ2 to mimic RDEB physiology and in normal human keratinocytes with no TGFβ2 treatment. Cells were treated during 24 h. Controls for RDEB_L1 cells not treated with TGFβ2 and RDEB_L1 and NHK cells treated with DMSO in the absence of compounds were also included. The conditions of the assay were identical to those described for the Real-time quantitative RT-PCR (see above). For the […], over 460 M reads were generated for 376 samples of interest, resulting in about 1.22 M reads per sample on average. […] is based on a 3'-end library preparation method, and gene body read coverage is concentrated towards the 3'-end of the genes. For quality control, a selection of lysate samples was checked for gDNA contamination and RNA content using qPCR before library preparation. RNA samples were processed to generate RNA-sequencing libraries using […] procedure based on the QuantSeq (Lexogen) 3'-end library preparation workflow. The quality of a selection of samples was assessed with the 2100 Bioanalyzer instrument (Agilent). Libraries were quantified using qPCR and pooled for single-end sequencing on a NextSeq 500 (Illumina) according to […] standard operating procedure. Raw reads were mapped to the human genome (hg38) and gene expression was quantified based on the Ensembl transcriptome annotation (version 85) using […]. Raw counts were normalized using […]2 prior to differential gene expression analysis. For each cell line, samples were clustered based on log-transformed normalized counts using tSNE. A perplexity parameter of 35 and a maximum number of 1000 iterations were applied. Genes with more than 10 normalized counts in at least 3 samples were used as input. Analysis was run in R (v3.2) with a fixed seed. […] For each contrast, genes ranked by fold change were used as input. PCA was applied on the fold changes of each compound vs their associated vehicle using the 500 genes with the greatest variance. Arrows connect the different incremental dosages used on each compound to observe their differentiation patterns. Pathway enrichment and PCA were performed using R v.3.2. Pathway enrichment was analyzed with cluster profile package. The procedure followed for the cell treatments of RDEB-L1 and NHEK, was the same as that used in the RT-qPCR study. Cell lysis and sample preparation were conducted according to […] instructions: Plates of treated cells were centrifuged for 5 min at 600 g at 4 °C, and the medium was carefully removed to avoid disturbing the cells. Then, cells were washed in PBS, centrifuged and the PBS was removed again. […] After checking that cells were lysed, the samples were transferred to 96-well PCR plates, and then sealed and stored at -80 °C to be sent to […].

[2] = test system: truncated and full-length C7 in RDEB_L1, RDEB_L5 and HEK293^R578X cells; assay: Western blot detection of truncated and full-length C7; format: cell-based, human; details: RDEB_L1 and HEK293^R578X cells; 50 μM compound 7, 50 μM chuangxinmycin, 100 μM 3-methyl-chuangxinmycin
Experimental: For western blot, RDEB or normal human keratinocytes were lysed in protein extraction buffer (50 mM Tris–HCl [pH 7.5], 100 mM NaCl, 1% Nonidet P-40, and 4 mM EDTA) containing proteinase inhibitors cocktail (Complete Mini, EDTA free; Roche Diagnostics, Mannheim, Germany). Lysates were incubated for 30 min on ice and centrifuged at 15,000 g for 30 min at 4 °C. Supernatants were then collected and concentrated by ultrafiltration using Amicon Ultra columns (10 kDa; Millipore, Ireland). Protein concentrations were measured using the Bradford assay (Bio-Rad, Hercules, CA). For each sample, […] total protein was resolved on NuPAGE Novex 3%–8% Tris–Acetate gel electrophoresis (Invitrogen, Carlsbad, CA) and electrotransferred to nitrocellulose membranes (Invitrogen, Carlsbad, CA). For type VII collagen analysis, blots were probed with a monospecific polyclonal anti-C7 antibody (a generous gift from Dr. A. Nystrom, University of Freiburg). Invitrogen anti-MDH1 polyclonal antibody (PA550446, 1:1000) was used to detect MDH1. Standard antibodies against a reference protein were used as a loading control, as indicated. Visualization of the resulting signal was performed by incubating with horseradish peroxidase (HRP)- conjugated anti-rabbit antibody (Amersham, Burlington, MA) and West Pico Chemiluminescent Substrate (Pierce, Rockford, IL).

[3] = test system: total (truncated + full length) C7 in RDEB_L1 cells; assay: AlphaLISA quantification of total C7 in RDEB_L1 cells; format: cell-based, human; details: 20 ng/mL TGFß2; for EC50: Homo sapiens, total C7 AlphaLISA, 48 h, mean ± SD, read-out: Increase in C7 levels EC50(rel)
Experimental: (§1) The AlphaLISA assay was developed in-house by using the biotin-conjugated rabbit polyclonal antibody anti-C7 (LSBio LS-298147) and conjugating the acceptor beads (PerkinElmer 6772001) to a monoclonal anti-Collagen type VII antibody produced in mouse, clone LH7.2 (Thermo MA5-13,432). Formulation of the mAb clone LH7.2 was exchanged to PBS and concentrated 5 × by using Amicon® Ultra-0.5 centrifugal filters up to 1 mg/ml. The conjugation procedure was carried out according to the protocol provided by PerkinElmer.
(§2) For compound treatment in RDEB patient-derived transformed keratinocytes, 5,000 cells were plated in 20 µL of supplemented KGM media containing 20 ng/mL TGFβ2 (SIGMA GF113) without GA-1000 in 384-well cell culture plates (Greiner 781098). The day after, 5 µL of test compounds prepared 5 × in supplemented KGM without GA-1000 were added over cells and incubated for 48 h at 37 °C and 5% CO2. For compound treatment in HEK293^R578X, 10,000 cells were plated in 20 μL of DMEM (High Glucose, 2 mM L-Glutamine, sodium pyruvate, and FBS 10%) in 384-well cell culture plates (Greiner 781,098,). The day after, 5 μL of test compounds prepared 5 × in DMEM complete medium were added over cells and incubated for 48 h at 37 °C and 5% CO2.
(§3) After the treatment process, 2.5 µL of RIPA buffer 10 x (Abcam ab156034) were added over the […] of cells for 20 min at room temperature to obtain a complete cell lysis. Then, 2 μL of sample (i.e., cell lysate with supernatant) were transferred to the AlphaLISA plate (PerkinElmer 6,059,340) containing […] of antibodies mixture ([…] of acceptor Beads-Ab and […] of biotin-rAb) prepared in AlphaLISA buffer 1 x (PerkinElmer AL00F). The reaction was incubated for 90 min at room temperature. Finally, 10 μL of […] of donor beads (PerkinElmer 6760002,) were added to the reaction under subdued light, mixed gently, and incubated for 3 h at room temperature. AlphaLISA signal was detected with an Envision microplate reader (Perkin Elmer) using the following setting: Filter: AlphaScreen, Excitation time: 180 ms, Integration time: 300 ms.
(§4) Statistical analyses were performed using GraphPad Prism v. 7.04 (La Jolla, California). Results are shown as mean ± SD of experimental replicates. Dose–response curves to assess compound treatment effect were plotted in a four-parameter logistic model. Relative EC50, representing the total drug concentration producing a 50% effect, was calculated in the four-parameter logistic equation. Comparisons of collagen protein and mRNA expression in different experimental conditions were made using ANOVA, followed by a post hoc test. statistical significance was considered with p values < 0.05.

[4] = test system: total C7 in HEK293^R578X cells; assay: AlphaLISA quantification of total C7 in recombinant HEK293^R578X cells; format: cell-based, human; details: for Increase in C7 levels Emax, % vs baseline: at 100 µM
Experimental: as §1, §2, §3, §4

[5] = test system: BZD; assay: Selectivity panel (Eurofins): benzodiazepine receptor BZD; format: binding; details: Table 5
[6] = target: T1, A2A (Homo sapiens, UniProt P29274); assay: Selectivity panel (Eurofins): A2A adenosine receptor; format: binding; details: Table 5, read-out: Selectivity % inhibition, A2A
T1 construct: Eurofins Pharma Discovery Services

[7] = target: T2, SAPK2α (Homo sapiens, UniProt Q16539); assay: Selectivity panel (Eurofins): p38/SAPK2α kinase; format: biochemical; details: Table 5, read-out: Selectivity % inhibition, SAPK2α
T2 construct: Eurofins Pharma Discovery Services

[8] = test system: total (truncated + full length) C7 in RDEB_L5 cells; assay: AlphaLISA quantification of total C7 in RDEB_L5 cells; format: cell-based, human
Experimental: as §1, §2, §3, §4

[9] = test system: NHK cells; assay: Cytotoxicity, ATP levels, normal human keratinocytes (NHK); format: cell-based; details: NHK cells, ATP levels, at 50 µM
Experimental: (§5) The viability of RDEB patient-derived cell lines or NHK was evaluated by measuring the ATP levels as an indirect readout of the potential cytotoxicity effect of compounds. Cells were plated and treated exactly with the same conditions as those followed in the AlphaLISA assay, described above. To measure ATP levels, cells were processed using the ATPlite™ 1step luminescence-based assay (PerkinElmer 6,016,731), following the manufacturer’s protocol. 25 μL of ATPlite™ reagent was added directly over cells and plates were covered with a sealing film and shaken for 25 min using a microtiter plate shaker. Luminescence was measured in a Luminoskan Ascent luminometer (Thermo Fisher Scientific). 10 μM of Staurosporine was used as a reference compound and control for the total cytotoxicity.

[10] = as above; format: cell-based; details: human, normal human keratinocytes (NHK); NHK cells, ATP levels; read-out: Cytotox. IC50
Experimental: as §5

T1 sequence (P29274 whole entry): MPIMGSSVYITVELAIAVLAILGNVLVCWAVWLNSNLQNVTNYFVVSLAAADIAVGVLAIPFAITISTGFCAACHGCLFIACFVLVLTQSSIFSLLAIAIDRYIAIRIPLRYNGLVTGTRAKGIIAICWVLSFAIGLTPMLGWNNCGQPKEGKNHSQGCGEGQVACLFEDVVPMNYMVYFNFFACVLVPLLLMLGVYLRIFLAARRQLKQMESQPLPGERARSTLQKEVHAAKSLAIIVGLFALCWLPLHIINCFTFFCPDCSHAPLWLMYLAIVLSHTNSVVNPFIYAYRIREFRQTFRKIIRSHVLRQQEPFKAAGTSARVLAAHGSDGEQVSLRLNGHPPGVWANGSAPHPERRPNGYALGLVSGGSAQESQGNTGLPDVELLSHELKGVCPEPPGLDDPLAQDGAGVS
T2 sequence (Q16539 whole entry): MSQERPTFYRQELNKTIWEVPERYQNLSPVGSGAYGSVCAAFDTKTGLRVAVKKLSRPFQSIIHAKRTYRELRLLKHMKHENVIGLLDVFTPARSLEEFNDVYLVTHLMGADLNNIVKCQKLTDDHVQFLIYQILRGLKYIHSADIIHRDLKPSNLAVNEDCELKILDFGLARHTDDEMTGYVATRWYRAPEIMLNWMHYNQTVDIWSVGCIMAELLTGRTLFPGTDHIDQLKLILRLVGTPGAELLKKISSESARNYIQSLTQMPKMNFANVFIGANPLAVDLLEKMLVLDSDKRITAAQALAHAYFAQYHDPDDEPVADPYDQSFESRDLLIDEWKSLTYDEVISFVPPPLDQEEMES

C[C@H]1c2c[nH]c3cccc(c23)S[C@H]1C(=O)O [Chuangxinmycin, chuangxinmycin]
modulation of GO terms related to NMD, readthrough, translation and unfolded protein response [1]: Neither compound 1 nor chuangxinmycin nor 3-methyl-chuangxinmycin showed any impact on these pathways
C7 products induced, western blot [2]: partially upregulated full-length C7
Increase in C7 levels Emax, % vs baseline ([3]; RDEB_L1 cells, at 50 µM): 22 ± 3 at 50 % vs baseline

CC1(C)c2c[nH]c3cccc(c23)S[C@H]1C(=O)O [3-methyl chuangxinmycin, 3-methyl-chuangxinmycin]
modulation of GO terms related to NMD, readthrough, translation and unfolded protein response [1]: Neither compound 1 nor chuangxinmycin nor 3-methyl-chuangxinmycin showed any impact on these pathways
C7 products induced, western blot [2]: partially upregulated full-length C7
EC50 ([4]; Homo sapiens, total C7 AlphaLISA, 48 h, relative EC50, mean ± SD, read-out: Increase in C7 levels EC50): 4.6 µM
Increase in C7 levels Emax, % vs baseline [4]: 58 at 100 % vs baseline
EC50 ([3]; RDEB_L1 cells): 42 µM
Increase in C7 levels Emax, % vs baseline ([3]; RDEB_L1 cells, at 100 µM): 105 ± 13 at 100 % vs baseline

Nc1cnc(-c2ccncc2)c(-c2cccc(F)c2)n1 [Compound 10]
Selectivity % inhibition, BZD ([5]; at 3 μM): 0%
Selectivity % inhibition, BZD ([5]; at 10 μM): 0%
Selectivity % inhibition, BZD ([5]; at 30 μM): 9%
Increase in C7 levels Emax, % vs baseline ([3]; Table 5 SAR, at 50 μM): 2.1 ± 16 at 50 % vs baseline
inhibition at 3 µM ([6]; at 3 μM): 104%
inhibition at 10 µM ([6]; at 10 μM): 103%
inhibition at 30 µM ([6]; at 30 μM): 104%
inhibition at 3 µM ([7]; at 3 μM): 36%
inhibition at 10 µM ([7]; at 10 μM): 162%
inhibition at 30 µM ([7]; at 30 μM): 88%

Nc1ncc(-c2ccc3cnn(CCO)c3c2)nc1C(=O)NC1C2CC3CC1CC(O)(C3)C2 (centres unmarked) [Compound 3]
EC50 ([8]; Homo sapiens, total C7 AlphaLISA, 48 h, 20 ng/mL TGFß2, relative EC50, mean ± SD, read-out: Increase in C7 levels EC50): 3.1 ± 0.008 µM
Increase in C7 levels Emax, % vs baseline ([8]; at 1.25 µM, 20 ng/mL TGFß2): 717 ± 229 at 1.25 % vs baseline
EC50 ([3]; RDEB_L1 cells): 1.9 ± 0.12 µM
Increase in C7 levels Emax, % vs baseline ([3]; RDEB_L1 cells, at 3.1 µM): 2083 ± 29 at 3.1 % vs baseline
Cytotox. % inhibition of viability [9]: 58% ± 13 at 50 (n=2)

C#Cc1nc(-c2ccncc2)c(-c2ccco2)nc1N [Compound 8]
modulation of GO terms related to NMD, readthrough, translation and unfolded protein response [1]: modulating genes specifically related to cytoplasmic translation and the ribosome
Increase in C7 levels Emax, % vs baseline [4]: 10± 13 at 100 % vs baseline
EC50 ([3]; RDEB_L1 cells): 40 ± 13 µM
Increase in C7 levels Emax, % vs baseline ([3]; RDEB_L1 cells, at 100 µM): 86 ± 13.9 at 100 % vs baseline
IC50 [10]: 31 ± 4.1 µM
